We go through 15 compounds from patent publication US7598393B2 (dated 2009).

For orientation: melting point means the temperature, or range, at which the solid turns liquid.

Counter-ions that a name gives are not always drawn.

On to `CC(C)S(=O)(=O)c1ccc2c(c1)nc(CC1CC1)n2CC1CC1`, for which the melting point was 107 °C.

`CC(C)S(=O)(=O)c1ccc2c(c1)nc(CC1CCCC1)n2CC1CC1` returned a melting point of 137 °C.

For the compound `CC(C)S(=O)(=O)c1ccc2c(c1)nc(CC1(C)CCCC1)n2CC1CC1`, the melting point amounted to 122 °C.

On to `CC(C)(C)Cc1nc2cc(S(=O)(=O)c3ccccc3)ccc2n1CC1CC1`, for which the melting point worked out at 173 °C.

Consider `CCS(=O)(=O)c1ccc2c(c1)nc(CC(C)(C)C)n2CC1CCCO1` (stereo not drawn), for which the melting point was 142 °C.

Consider `CC(C)S(=O)(=O)c1ccc2c(c1)nc(CC(C)(C)C)n2CC1(O)CCOCC1`, for which the melting point was 189 °C.

On to `CCS(=O)(=O)c1ccc2c(c1)nc(CC(C)(C)C)n2CC1(O)CCCC1`, for which the melting point was 172 °C.

Regarding `CCS(=O)(=O)c1cnc2c(c1)nc(CC(C)(C)C)n2CC1CCOCC1`, the melting point is 191 °C.

With `CC(C)S(=O)(=O)c1cnc2c(c1)nc(CC(C)(C)C)n2CC1(O)CCOCC1`, the melting point is 179 °C.

`CC(C)S(=O)(=O)c1cnc2c(c1)nc(CC(C)(C)C)n2CCN(C)C` came in with a melting point of 119 °C.

With `CC(C)S(=O)(=O)c1cnc2c(c1)nc(CC(C)(C)C)n2CC1CCOCC1`, the melting point was found to be 201 °C.

As for `CCS(=O)(=O)c1ccc2c(c1)nc(CC(C)(C)C)n2CCOC(F)(F)F`, the melting point came out at 133 °C.

As for `CC(C)S(=O)(=O)c1ccc2c(c1)nc(CC(C)(C)C)n2CCN1CCOCC1`, the melting point was 151 °C.

On to `CC(C)S(=O)(=O)c1ccc2c(c1)nc(CC(C)(C)C)n2CCN(C)C`, for which the melting point was 116 °C.

`CC(C)(C)Cc1nc2cc(S(C)(=O)=O)ccc2n1CC1CC1` (as salt: hydrochloride) gave a melting point of 217 °C.
